Test results as given in patent US20250381274A1 (priority 2022, published 2025).
Entries after “also recorded” stand apart in the source; their conditions may differ.

System: corneal tissues
Assay: Multiphoton/confocal imaging: autofluorescence and second harmonic generation signal
Design: species or system rabbit
Details: anterior 100 μm
From the text: • The grey value of the top 100 μm (11 Z-stacks) of the cornea button was summed; • The average of the grey value summations are presented in appended FIGS. 1-25. • […] • The average of the grey value summations and Representative images at ˜600*600*100 μm in x, y, z are presented in appended FIGS. 1-25. The autofluorescence and second harmonic generation (SHG) signals of the corneal tissues in Group A were investigated to reveal the presence of CxLs and structural changes in collagenous ECM after hydration equilibrium in PBS on the same night of individual treatment days. Imaging was performed with a Nikon TI Eclipse inverted microscope using a Ti: Sapphire laser Chameleon Ultra II at 860 nm as the light source and a Nikon Apo LWD 20× objective for focusing. The emission filter was set at the FITC channel (475-650 nm, peak 525 nm) for autofluorescence signal collection and at the DAPI channel (400-600 nm, peak at 457 nm) for SHG signal collection. The XY scanning area for each sample was 635 μm by 635 μm, and Z scanning was 100 μm deep with 10 μm increments (stack of 11 images per sample). The summation of the average grey value processed in Image J at each layer was used as the representative signal strength for each sample.

[1] = ribose + 365 nm UVA lamp, listed as Ribose
[2] = ribose + 400 nm femtosecond laser
[3] = ribose + 1069 nm femtosecond laser
[4] = ribose + 1069 nm femtosecond laser, listed as Ribose

O=C[C@H](O)[C@H](O)[C@H](O)CO [ribose]
autofluorescence signal intensity change vs paired control (words) (ribose + 365 nm UVA lamp): increased significantly; also recorded: slightly increased; also recorded: Statistical significance | second harmonic generation signal intensity change vs paired control (words) (ribose + 365 nm UVA lamp): decreased significantly; also recorded: statistically significant decreases; also recorded: Statistical significance | autofluorescence signal intensity change vs paired control (words) [1]: increased | second harmonic generation signal intensity change vs paired control (words) [1]: decreased | autofluorescence signal intensity change vs paired control (words) [2]: increased significantly; also recorded: slightly increased; also recorded: Statistical significance | second harmonic generation signal intensity change vs paired control (words) [2]: decreased significantly; also recorded: statistically significant decreases; also recorded: Statistical significance | autofluorescence signal intensity change vs paired control (words) [3]: increased significantly; also recorded: slightly increased; also recorded: Statistical significance | second harmonic generation signal intensity change vs paired control (words) [3]: decreased significantly; also recorded: statistically significant decreases; also recorded: Statistical significance | autofluorescence signal intensity change vs paired control (words) [4]: increased | second harmonic generation signal intensity change vs paired control (words) [4]: decreased
